Tests used:
Assay type in all cases: functional
[1] = test system: CCRF-CEM; test: Growth inhibition of human CCRF-CEM cells assessed as cell growth at 10 uM after 48 hrs by sulforhodamine B assay relative to control; details: read-out: Activity
[2] = test system: HL-60(TB); test: Growth inhibition of human HL-60(TB) cells assessed as cell growth at 10 uM after 48 hrs by sulforhodamine B assay relative to control; details: HL-60, 48 h, read-out: Activity
[3] = test system: RPMI-8226; test: Growth inhibition of human RPMI8226 cells assessed as cell growth at 10 uM after 48 hrs by sulforhodamine B assay relative to control; details: RPMI-8226, 48 h, read-out: Activity
[4] = test system: SR; test: Growth inhibition of human SR cells assessed as cell growth at 10 uM after 48 hrs by sulforhodamine B assay relative to control; details: read-out: Activity
[5] = test system: A549; test: Growth inhibition of human A549/ATCC cells assessed as cell growth at 10 uM after 48 hrs by sulforhodamine B assay relative to control; details: A549, 48 h, read-out: Activity
[6] = test system: EKVX; test: Growth inhibition of human EKVX cells assessed as cell growth at 10 uM after 48 hrs by sulforhodamine B assay relative to control; details: read-out: Activity
[7] = test system: HOP-92; test: Growth inhibition of human HOP92 cells assessed as cell growth at 10 uM after 48 hrs by sulforhodamine B assay relative to control; details: HOP-92, 48 h, read-out: Activity
[8] = test system: NCI-H460; test: Growth inhibition of human NCI-H460 cells assessed as cell growth at 10 uM after 48 hrs by sulforhodamine B assay relative to control; details: NCI-H460, 48 h, read-out: Activity
[9] = test system: NCI-H522; test: Growth inhibition of human NCI-H522 cells assessed as cell growth at 10 uM after 48 hrs by sulforhodamine B assay relative to control; details: NCI-H522, 48 h, read-out: Activity
[10] = test system: HCC 2998; test: Growth inhibition of human HCC2998 cells assessed as cell growth at 10 uM after 48 hrs by sulforhodamine B assay relative to control; details: HCC 2998, 48 h, read-out: Activity
[11] = test system: HCT-116; test: Growth inhibition of human HCT116 cells assessed as cell growth at 10 uM after 48 hrs by sulforhodamine B assay relative to control; details: HCT-116, 48 h, read-out: Activity
[12] = test system: KM12; test: Growth inhibition of human KM12 cells assessed as cell growth at 10 uM after 48 hrs by sulforhodamine B assay relative to control; details: KM12, 48 h, read-out: Activity
[13] = test system: SF-268; test: Growth inhibition of human SF268 cells assessed as cell growth at 10 uM after 48 hrs by sulforhodamine B assay relative to control; details: SF-268, 48 h, read-out: Activity
[14] = test system: SF-295; test: Growth inhibition of human SF295 cells assessed as cell growth at 10 uM after 48 hrs by sulforhodamine B assay relative to control; details: SF-295, 48 h, read-out: Activity
[15] = test system: U-251; test: Growth inhibition of human U251 cells assessed as cell growth at 10 uM after 48 hrs by sulforhodamine B assay relative to control; details: U-251, 48 h, read-out: Activity
[16] = test system: Malme-3M; test: Growth inhibition of human MALME-3M cells assessed as cell growth at 10 uM after 48 hrs by sulforhodamine B assay relative to control; details: read-out: Activity
[17] = test system: M14; test: Growth inhibition of human M14 cells assessed as cell growth at 10 uM after 48 hrs by sulforhodamine B assay relative to control; details: M14, 48 h, read-out: Activity
[18] = test system: MDA-MB-435; test: Growth inhibition of human MDA-MB-435 cells assessed as cell growth at 10 uM after 48 hrs by sulforhodamine B assay relative to control; details: MDA-MB-435, 48 h, read-out: Activity
[19] = test system: SK-MEL-2; test: Growth inhibition of human SK-MEL-2 cells assessed as cell growth at 10 uM after 48 hrs by sulforhodamine B assay relative to control; details: SK-MEL-2, 48 h, read-out: Activity
[20] = test system: UACC-257; test: Growth inhibition of human UACC257 cells assessed as cell growth at 10 uM after 48 hrs by sulforhodamine B assay relative to control; details: UACC-257, 48 h, read-out: Activity
[21] = test system: IGROV-1; test: Growth inhibition of human IGROV1 cells assessed as cell growth at 10 uM after 48 hrs by sulforhodamine B assay relative to control; details: IGROV-1, 48 h, read-out: Activity
[22] = test system: OVCAR-4; test: Growth inhibition of human OVCAR4 cells assessed as cell growth at 10 uM after 48 hrs by sulforhodamine B assay relative to control; details: OVCAR-4, 48 h, read-out: Activity
[23] = test system: OVCAR-8; test: Growth inhibition of human OVCAR8 cells assessed as cell growth at 10 uM after 48 hrs by sulforhodamine B assay relative to control; details: OVCAR-8, 48 h, read-out: Activity
[24] = test system: NCI/ADR-RES; test: Growth inhibition of human NCI/ADR-RES cells assessed as cell growth at 10 uM after 48 hrs by sulforhodamine B assay relative to control; details: read-out: Activity
[25] = test system: 786-0; test: Growth inhibition of human 786-0 cells assessed as cell growth at 10 uM after 48 hrs by sulforhodamine B assay relative to control; details: 786-0, 48 h, read-out: Activity
[26] = test system: A498; test: Growth inhibition of human A498 cells assessed as cell growth at 10 uM after 48 hrs by sulforhodamine B assay relative to control; details: A498, 48 h, read-out: Activity
[27] = test system: CAKI-1; test: Growth inhibition of human Caki1 cells assessed as cell growth at 10 uM after 48 hrs by sulforhodamine B assay relative to control; details: CAKI-1, 48 h, read-out: Activity
[28] = test system: RXF 393; test: Growth inhibition of human RXF393 cells assessed as cell growth at 10 uM after 48 hrs by sulforhodamine B assay relative to control; details: RXF 393, 48 h, read-out: Activity
[29] = test system: TK-10; test: Growth inhibition of human TK10 cells assessed as cell growth at 10 uM after 48 hrs by sulforhodamine B assay relative to control; details: TK-10, 48 h, read-out: Activity
[30] = test system: UO-31; test: Growth inhibition of human UO31 cells assessed as cell growth at 10 uM after 48 hrs by sulforhodamine B assay relative to control; details: UO-31, 48 h, read-out: Activity
[31] = test system: PC-3; test: Growth inhibition of human PC3 cells assessed as cell growth at 10 uM after 48 hrs by sulforhodamine B assay relative to control; details: PC-3, 48 h, read-out: Activity
[32] = test system: DU-145; test: Growth inhibition of human DU145 cells assessed as cell growth at 10 uM after 48 hrs by sulforhodamine B assay relative to control; details: DU-145, 48 h, read-out: Activity
[33] = test system: Hs-578T; test: Growth inhibition of human Hs 578T cells assessed as cell growth at 10 uM after 48 hrs by sulforhodamine B assay relative to control; details: read-out: Activity
[34] = test system: BT-549; test: Growth inhibition of human BT549 cells assessed as cell growth at 10 uM after 48 hrs by sulforhodamine B assay relative to control; details: BT-549, 48 h, read-out: Activity

Row | SMILES | growth at 10 µM [1] [%] | growth at 10 µM [2] [%] | growth at 10 µM [3] [%] | growth at 10 µM [4] [%] | growth at 10 µM [5] [%] | growth at 10 µM [6] [%] | growth at 10 µM [7] [%] | growth at 10 µM [8] [%] | growth at 10 µM [9] [%] | growth at 10 µM [10] [%] | growth at 10 µM [11] [%] | growth at 10 µM [12] [%] | growth at 10 µM [13] [%] | growth at 10 µM [15] [%] | growth at 10 µM [16] [%] | growth at 10 µM [17] [%] | growth at 10 µM [18] [%] | growth at 10 µM [19] [%] | growth at 10 µM [20] [%] | growth at 10 µM [21] [%] | other results
1 | COc1ccc(Cn2cc(C(=O)N/N=C3/C(=O)Nc4ccc(Br)cc43)nn2)cc1 | 92.5 | 85.2 | 100 | 77.5 | 95.1 | 106 | 114 | 111 | 89.1 | 98.5 | 77 | 104 | 94.1 | 105 | -89.9 | 111 | 101 | 98 | 102 | 105 | growth at 10 µM [14]: 95.8%; growth at 10 µM [22]: 105%; growth at 10 µM [23]: 99.2%; growth at 10 µM [24]: 103%; growth at 10 µM [25]: 99.6%; growth at 10 µM [26]: 97.1%; growth at 10 µM [27]: 97.7%; growth at 10 µM [28]: 99.8%; growth at 10 µM [29]: 97.6%; growth at 10 µM [30]: 91.5%; growth at 10 µM [31]: 99.8%; growth at 10 µM [32]: 93.7%; growth at 10 µM [33]: 114%; growth at 10 µM [34]: 111%
2 | COc1ccc(Cn2cc(C(=O)N/N=C3/C(=O)Nc4ccccc43)nn2)cc1 | 104 | 93.3 | 105 | 94.8 | 98.4 | 104 | 112 | 109 | 87.8 | 110 | 109 | 101 | 101 | 92.2 | 97.2 | 103 | 100 | 94.8 | 102 | 97.5 | growth at 10 µM [14]: 103%; growth at 10 µM [22]: 108%; growth at 10 µM [23]: 97.8%; growth at 10 µM [24]: 97.2%; growth at 10 µM [25]: 106%; growth at 10 µM [26]: 96%; growth at 10 µM [27]: 93.3%; growth at 10 µM [28]: 101%; growth at 10 µM [29]: 107%; growth at 10 µM [30]: 84.8%; growth at 10 µM [31]: 103%; growth at 10 µM [32]: 104%; growth at 10 µM [33]: 109%; growth at 10 µM [34]: 115%
3 | COc1ccc(Cn2cc(C(=O)N/N=C3/C(=O)Nc4ccc(F)c(Cl)c43)nn2)cc1 | 109 | 78.7 | 116 | 99.5 | 98 | 108 | 129 | 108 | 84 | 104 | 109 | 101 | 99.4 | 103 | 103 | 107 | 99.3 | 95.6 | 100 | 110 | growth at 10 µM [22]: 104%; growth at 10 µM [23]: 99.2%; growth at 10 µM [24]: 104%; growth at 10 µM [25]: 103%; growth at 10 µM [26]: 91.3%; growth at 10 µM [27]: 96.8%; growth at 10 µM [28]: 104%; growth at 10 µM [29]: 101%; growth at 10 µM [30]: 92.4%; growth at 10 µM [31]: 105%; growth at 10 µM [32]: 96.6%; growth at 10 µM [33]: 112%; growth at 10 µM [34]: 117%

From ChEMBL document CHEMBL4411296, “Design and development of Isatin-triazole hydrazones as potential inhibitors of microtubule affinity-regulating kinase 4 for the therapeutic management of cell proliferation and metastasis” (Eur J Med Chem, 2019)
